Test results reported in patent publication US20220387544A1, “NOVEL THERAPEUTIC USE” (Artios Pharma Limited, priority 2019, published 2022).

What was measured:
Type in all cases: cell-based
[1] = system: RPE1 TP53-/-BRCA1-/-cells; assay: siRNA screen for Compound A sensitivity in BRCA1 defective RPE1; details: for Drug Effect (DE) Z-score: BRCA1 defective RPE1
Source text: (§1) An siRNA library was purchased from Dharmacon. Each well contained a SMART pool of four distinct siRNA species targeting different sequences of the target transcript, as well as individual siRNA targeting components of the Shieldin complex. Each plate was supplemented with negative siCONTROL (12 wells; Dharmacon) and positive control (four wells, siPLK1, Dharmacon). RNAi screening conditions were optimized and raw CellTitre-Glo (Promega) luminescent viability readings were generated as previously described (Lord et al DNA Repair (2008) 7, 2010-2019). Compound A or vehicle (DMSO) was added 24 h after transfection at 5 μM (CAL51) or 10 μM (RPE TP53-/-BRCA1-defective) concentration in media and cells were exposed for 5 days. Statistical analysis of the siRNA screen was performed as described elsewhere (Lord et al DNA Repair (2008) 7, 2010-2019). In brief, luminescence values from CellTitre-Glo assays in Compound A and DMSO exposed cells were log2 transformed and then normalized to plate median (PM) effects. Drug Effect (DE) scores were calculated from PM normalized data using the equation: DE=(log2 PM normalized signal of siRNA in the presence of Compound A)—(log2 PM normalized signal of siRNA in the absence of Compound A). DE values were then Z-score standardized according to screen median and median absolute deviation values.
To discover genes that are synthetic lethal with Polθ inhibitor in cells lacking DSBR through homologous recombination, an siRNA screen using 1418 siRNAs was performed using BRCA1 defective RPE1 TP53-/-BRCA1-/-cells. The screen was performed and analysed as described in FIG. 8 for the CAL51 screen. REV7 and SHLD2 (FAM35A) were two of the top hits (FIG. 8(a)), confirming the link between SHLD component defects and Polθ inhibitor sensitivity.

[2] = system: parental and C20orf196 KO SUM149 tumouroids; assay: Tumouroid assay, parental vs C20orf196 KO SUM149; details: in C20orf196 KO cells when compared with olaparib
Protocol: Cells were seeded into a hydrogel containing 10% rat tail collagen (OcellO) in 384-well high content imaging microplates at varying densities to compensate for differential growth characteristics (Table 2).
24 hours after seeding, test compounds and olaparib (Selleckchem) were added in an eight-point dose range with a one in three serial dilution (maximum concentration 12 μM for all compounds, except 30 μM compound A for REV7 KO cell experiments). Dimethyl sulfoxide (DMSO) and 1 μM staurosporine (Med Chem Express) treatments were included as negative and positive controls, respectively. All treatments were carried out in quadruplicate.
After seven or fourteen days of treatment for 20orf196 KO and REV7 KO experiments respectively, cells were fixed with 5× Fix & Stain solution (OcellO) for 16 hours at 4° C. to stain both the nuclei using Hoechst 33258 and the actin cytoskeleton using Rhodamine-Phalloidin. Cells were washed four times with phosphate-buffered saline (PBS), and plates were imaged and analysed using OcellO's three-dimensional image analysis software (Ominer). For each well, two channels of 16-bit image stacks were collected using an automated microscope system: Molecular Devices ImageXpress Micro XLS, equipped with a 4× magnification/0.2NA PlanApo objective. For each image slice (n=47), pixel size was 0.324 μm and step size in z-direction was 50 μm.
Parental or C20orf196 KO SUM149 cells were seeded into a collagen-containing hydrogel in 384-well plates and incubated overnight. The resulting tumouroids were treated with a serial dilution of Polθ inhibitor or olaparib for seven days, fixed, and stained to visualise DNA and F-actin. Plates were imaged, and tumouroid size was measured using OcellO's three-dimensional image analysis software.
Parental or C20orf196 KO SUM149 cells were seeded into a collagen-containing hydrogel in 384-well plates and incubated overnight. The resulting tumouroids were treated with a serial dilution of Polθ inhibitor or olaparib for seven days, fixed, and stained to visualise DNA and F-actin. Plates were imaged, and the number of nuclei per tumouroid was counted using OcellO's three-dimensional image analysis software.
Parental or C20orf196 KO SUM149 cells were seeded into a collagen-containing hydrogel in 384-well plates and incubated overnight. The resulting tumouroids were treated with Polθ inhibitor, olaparib or control compound (at the concentrations indicated) for seven days, fixed, and stained to visualise DNA and F-actin. Plates were imaged, and the fraction of nuclei without an associated actin cytoskeleton was calculated using OcellO's three-dimensional image analysis software.

[3] = system: CAL51 breast cancer cells; assay: siRNA screen for Compound A sensitivity in CAL51
Source text: as §1
To discover genes that are synthetic lethal with Polθ inhibitors, an siRNA screen using 1280 siRNAs was performed using CAL51 breast cancer cells. The cells were transfected with siRNA SMARTPools in a 384 well plate arrayed format then, twenty-four hours later, exposed to either DMSO or Compound A. Cells were then continuously cultured in the presence of Compound A or DMSO for a further five days, at which point the viability of cells was measured using CellTitre-Glo reagent (a luminescence assay measuring cellular ATP levels). Luminescence values from each well of the 384 well plate were log2 transformed and then normalized to the median signal on each plate (to account for plate to plate variation). By comparing normalized values for each siRNA SMARTPool in DMSO and Compound A-exposed cells, the effect of each siRNA on Compound A sensitivity was calculated, being expressed as a Drug Effect (DE) Z score.

[4] = non-targeting siRNA Allstar control

Structure (SMILES): Cc1cccc(N(C)C(=O)[C@@H]2[C@H](O)CCN2c2nc(C)cc(C(F)(F)F)c2C#N)c1 [Compound A, (2S,3R)-1-(3-cyano-6-methyl-4-(trifluoromethyl)pyridin-2-yl)-3-hydroxy-N-methyl-N-(m-tolyl)pyrrolidine-2-carboxamide]
- sensitivity caused by siRNAs targeting FAM35A or REV7 (DE<−2) ([1]; BRCA1 defective RPE1 cells, 10 μM, 5 days): caused sensitivity
- Drug Effect (DE) Z-score [1, 4]: 1.3
- Drug Effect (DE) Z-score ([1]; non-targeting siRNA siCON1): −0.8
- Drug Effect (DE) Z-score ([1]; non-targeting siRNA siCON2): −0.6
- cell death [2]: significantly more cell death
- reduction in the number of nuclei per tumoroid [2]: greater reduction in the number of nuclei per tumoroid
- reduction in tumoroid size [2]: greater reduction in tumoroid size
- Drug Effect (DE) Z-score [3, 4]: 1.0
- Drug Effect (DE) Z-score ([3]; non-targeting siRNA siCON1): 0.8
- Drug Effect (DE) Z-score ([3]; non-targeting siRNA siCON2): 1.0
- Drug Effect (DE) Z-score ([3]; siRNA pool targeting REV7, 5 μM, 5 days, median of triplicate screens): −2.88
